From ChEMBL document CHEMBL5579839, “Discovery of new cyclopropane sulfonamide derivatives as EGFR inhibitors to overcome C797S-mediated resistance and EGFR double mutation” (Eur J Med Chem, 2024)
Active and inactive are the calls of the source. The rule behind the calls is not given here.

Key:
[1] = Toxicity in nude mouse allografted with mouse BaF3 cells assessed as animal health at 50 mg/kg, po measured for 7 days; format: organism-based; details: in vivo, 168 h, time 7 day
[2] = tested on: NCI-H1975; test: Induction of apoptosis in human NCI-H1975 cells assessed as viable cells at 10 nM incubated for 24 hrs by Annexin V-FITC/PI staining based flow cytometry (reference value: 91.38 %); format: functional; details: read-out: Activity
[3] = tested on: BaF3; test: Inhibition of cell migration in mouse BaF3 cells harboring EGFR L858R/T790M/C797S mutant by transwell assay; format: functional, cell-based
[4] = target: T1, Epidermal growth factor receptor (Homo sapiens, UniProt P00533); test: Inhibition of EGFR in human NCI-H1975 cells assessed as reduction in AKT phosphorylation incubated for 24 hrs by Western blot analysis; format: cell-based; details: dose <= 50.0 nM
T1 sequence (P00533 whole entry): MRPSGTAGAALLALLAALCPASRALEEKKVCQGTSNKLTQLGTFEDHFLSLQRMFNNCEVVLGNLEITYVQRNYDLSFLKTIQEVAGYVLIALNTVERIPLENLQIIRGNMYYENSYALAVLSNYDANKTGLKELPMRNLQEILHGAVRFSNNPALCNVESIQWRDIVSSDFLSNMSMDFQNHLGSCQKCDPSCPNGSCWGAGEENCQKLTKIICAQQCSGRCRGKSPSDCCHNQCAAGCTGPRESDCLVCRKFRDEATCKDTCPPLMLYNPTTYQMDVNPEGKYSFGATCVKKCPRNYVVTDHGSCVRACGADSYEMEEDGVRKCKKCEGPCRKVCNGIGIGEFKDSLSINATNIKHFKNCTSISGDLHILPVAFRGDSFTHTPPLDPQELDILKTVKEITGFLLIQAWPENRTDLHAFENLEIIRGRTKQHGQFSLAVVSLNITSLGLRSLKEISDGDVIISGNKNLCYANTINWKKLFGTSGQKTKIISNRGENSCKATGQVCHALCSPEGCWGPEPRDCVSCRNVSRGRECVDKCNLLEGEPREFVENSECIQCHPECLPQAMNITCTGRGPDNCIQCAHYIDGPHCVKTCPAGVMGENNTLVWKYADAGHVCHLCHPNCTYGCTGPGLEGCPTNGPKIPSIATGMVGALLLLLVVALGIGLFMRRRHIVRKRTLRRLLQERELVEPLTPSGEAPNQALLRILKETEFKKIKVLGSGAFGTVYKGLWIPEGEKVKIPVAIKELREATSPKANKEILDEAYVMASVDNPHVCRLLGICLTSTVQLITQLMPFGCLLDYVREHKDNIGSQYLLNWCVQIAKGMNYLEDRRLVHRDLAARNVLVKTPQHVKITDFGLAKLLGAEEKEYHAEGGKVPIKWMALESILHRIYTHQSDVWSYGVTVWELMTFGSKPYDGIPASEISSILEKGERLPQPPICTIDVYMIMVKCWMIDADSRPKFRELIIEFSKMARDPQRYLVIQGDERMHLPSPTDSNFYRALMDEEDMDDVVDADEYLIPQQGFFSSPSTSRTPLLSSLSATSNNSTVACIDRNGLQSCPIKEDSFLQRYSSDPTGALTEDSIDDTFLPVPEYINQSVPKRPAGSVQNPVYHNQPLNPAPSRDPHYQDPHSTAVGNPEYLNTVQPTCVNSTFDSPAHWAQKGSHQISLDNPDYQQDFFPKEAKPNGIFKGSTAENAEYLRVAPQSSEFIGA

[5] = tested on: NCI-H1975; test: Inhibition of fibronectin activation in human NCI-H1975 cells xenografted in nude mouse at 50 mg/kg, po for 7 days by IHC analysis; format: functional, organism-based; details: time 7.0 day
[6] = Toxicity in nude mouse allografted with mouse BaF3 cells assessed as damage in kidney at 50 mg/kg, po for 7 days by H and E staining based analysis; format: organism-based; details: in vivo, 168 h, time 7 day
[7] = tested on: BaF3; test: Induction of apoptosis in mouse BaF3 cells harboring EGFR L858R/T790M/C797S mutant assessed as necrotic cells at 10 nM incubated for 24 hrs by Annexin V-FITC/PI staining based flow cytometry (reference value: 0.06 %); format: functional
[8] = Toxicity in nude mouse allografted with mouse BaF3 cells assessed as lesion in spleen at 50 mg/kg, po for 7 days by H and E staining based analysis; format: organism-based; details: in vivo, 168 h, time 7 day
[9] = target: T1, Epidermal growth factor receptor; test: Inhibition of wild-type EGFR (unknown origin)
[10] = tested on: BaF3; test: Inhibition of EGFR L858R/T790M/C797S mutant in mouse BaF3 cells assessed as reduction in ERK phosphorylation incubated for 24 hrs by Western blot analysis; format: cell-based; details: dose <= 100.0 nM
[11] = tested on: BaF3; test: Inhibition of cell invasion in mouse BaF3 cells harboring EGFR L858R/T790M/C797S mutant by transwell assay; format: functional, cell-based
[12] = target: Epidermal growth factor receptor (Homo sapiens, UniProt P00533, C797S/EX19DEL/T790M); test: Inhibition of EGFR C797S/T790M/Del19 mutant (unknown origin)
Epidermal growth factor receptor (Homo sapiens, UniProt P00533, C797S/EX19DEL/T790M), sequence (P00533 whole entry, looked up, stated change not applied): as the sequence (P00533 whole entry) above

[13] = Toxicity in nude mouse allografted with mouse BaF3 cells assessed as body weight loss at 50 mg/kg, po measured for 7 days; format: organism-based; details: in vivo, 168 h, time 7 day
[14] = tested on: NCI-H1975; test: Inhibition of cell migration in human NCI-H1975 cells at 10 nM incubated for 24 hrs by scratch healing assay relative to control; format: functional
[15] = tested on: BaF3; test: Inhibition of fibronectin activation in mouse BaF3 cells allografted in nude mouse at 50 mg/kg, po for 7 days; format: functional, organism-based; details: time 7.0 day
[16] = Cytotoxicity against human HUVEC cells; format: toxicity, cell-based
[17] = tested on: BaF3; test: Antitumor activity against mouse BaF3 cells allografted in nude mouse assessed as reduction of tumor weight at 50 mg/kg, po measured for 7 days; format: functional, organism-based; details: time 7.0 day
[18] = tested on: NCI-H1975; test: Induction of apoptosis in human NCI-H1975 cells assessed as early apoptotic cells at 10 nM incubated for 24 hrs by Annexin V-FITC/PI staining based flow cytometry (reference value: 2.18 %); format: functional
[19] = target: T1, Epidermal growth factor receptor; test: Inhibition of EGFR in human NCI-H1975 cells assessed as reduction in ERK phosphorylation incubated for 24 hrs by Western blot analysis; format: cell-based; details: dose <= 50.0 nM
[20] = tested on: BaF3; test: Antiproliferative activity against mouse BaF3 cells harboring EGFR C797S/Del19/T790M mutant; format: functional, cell-based
[21] = Cytotoxicity against human L02 cells; format: toxicity, cell-based
[22] = Cytotoxicity against human HaCaT cells; format: toxicity, cell-based
[23] = tested on: NCI-H1975; test: Induction of apoptosis in human NCI-H1975 cells assessed as necrotic cells at 10 nM incubated for 24 hrs by Annexin V-FITC/PI staining based flow cytometry (reference value: 2.89 %); format: functional
[24] = target: Epidermal growth factor receptor (Homo sapiens, UniProt P00533, C797S/L858R/T790M); test: Inhibition of EGFR C797S/T790M/L858R mutant (unknown origin)
[25] = tested on: NCI-H1975; test: Induction of apoptosis in human NCI-H1975 cells assessed as increase in green fluorescence at 10 to 25 nM by TUNNEL method; format: functional, cell-based; details: dose 10-25 nM
[26] = tested on: BaF3; test: Induction of cell death in outer layer of cell spheres of mouse BaF3 cells harboring EGFR L858R/T790M/C797S mutant at 1 nM by Calcein AM/PI staining based analysis; format: functional
[27] = tested on: BaF3; test: Antitumor activity against mouse BaF3 cells allografted in nude mouse assessed as reduction of tumor volume at 50 mg/kg, po measured after 2 to 7 days; format: functional, organism-based; details: time 2-7 day
[28] = Cytotoxicity against VEGF-stimulated human HUVEC cells; format: toxicity, cell-based
[29] = tested on: NCI-H1975; test: Inhibition of neovascularization in human NCI-H1975 cells xenografted in nude mouse at 50 mg/kg, po for 7 days by IHC analysis; format: functional, organism-based; details: time 7.0 day
[30] = tested on: NCI-H1975; test: Inhibition of cell migration in human NCI-H1975 cells by transwell assay; format: functional, cell-based
[31] = tested on: BaF3; test: Induction of apoptosis in mouse BaF3 cells harboring EGFR L858R/T790M/C797S mutant assessed as early apoptotic cells at 10 nM incubated for 24 hrs by Annexin V-FITC/PI staining based flow cytometry (reference value: 0.15 %); format: functional
[32] = Toxicity in nude mouse allografted with mouse BaF3 cells assessed as lesion in lung at 50 mg/kg, po for 7 days by H and E staining based analysis; format: organism-based; details: in vivo, 168 h, time 7 day
[33] = target: Vascular endothelial growth factor receptor 2 (Homo sapiens) (UniProt P35968); test: Binding affinity to KDR (unknown origin) at 100 nM by kinase profiling analysis
Vascular endothelial growth factor receptor 2 (Homo sapiens), sequence (P35968 whole entry): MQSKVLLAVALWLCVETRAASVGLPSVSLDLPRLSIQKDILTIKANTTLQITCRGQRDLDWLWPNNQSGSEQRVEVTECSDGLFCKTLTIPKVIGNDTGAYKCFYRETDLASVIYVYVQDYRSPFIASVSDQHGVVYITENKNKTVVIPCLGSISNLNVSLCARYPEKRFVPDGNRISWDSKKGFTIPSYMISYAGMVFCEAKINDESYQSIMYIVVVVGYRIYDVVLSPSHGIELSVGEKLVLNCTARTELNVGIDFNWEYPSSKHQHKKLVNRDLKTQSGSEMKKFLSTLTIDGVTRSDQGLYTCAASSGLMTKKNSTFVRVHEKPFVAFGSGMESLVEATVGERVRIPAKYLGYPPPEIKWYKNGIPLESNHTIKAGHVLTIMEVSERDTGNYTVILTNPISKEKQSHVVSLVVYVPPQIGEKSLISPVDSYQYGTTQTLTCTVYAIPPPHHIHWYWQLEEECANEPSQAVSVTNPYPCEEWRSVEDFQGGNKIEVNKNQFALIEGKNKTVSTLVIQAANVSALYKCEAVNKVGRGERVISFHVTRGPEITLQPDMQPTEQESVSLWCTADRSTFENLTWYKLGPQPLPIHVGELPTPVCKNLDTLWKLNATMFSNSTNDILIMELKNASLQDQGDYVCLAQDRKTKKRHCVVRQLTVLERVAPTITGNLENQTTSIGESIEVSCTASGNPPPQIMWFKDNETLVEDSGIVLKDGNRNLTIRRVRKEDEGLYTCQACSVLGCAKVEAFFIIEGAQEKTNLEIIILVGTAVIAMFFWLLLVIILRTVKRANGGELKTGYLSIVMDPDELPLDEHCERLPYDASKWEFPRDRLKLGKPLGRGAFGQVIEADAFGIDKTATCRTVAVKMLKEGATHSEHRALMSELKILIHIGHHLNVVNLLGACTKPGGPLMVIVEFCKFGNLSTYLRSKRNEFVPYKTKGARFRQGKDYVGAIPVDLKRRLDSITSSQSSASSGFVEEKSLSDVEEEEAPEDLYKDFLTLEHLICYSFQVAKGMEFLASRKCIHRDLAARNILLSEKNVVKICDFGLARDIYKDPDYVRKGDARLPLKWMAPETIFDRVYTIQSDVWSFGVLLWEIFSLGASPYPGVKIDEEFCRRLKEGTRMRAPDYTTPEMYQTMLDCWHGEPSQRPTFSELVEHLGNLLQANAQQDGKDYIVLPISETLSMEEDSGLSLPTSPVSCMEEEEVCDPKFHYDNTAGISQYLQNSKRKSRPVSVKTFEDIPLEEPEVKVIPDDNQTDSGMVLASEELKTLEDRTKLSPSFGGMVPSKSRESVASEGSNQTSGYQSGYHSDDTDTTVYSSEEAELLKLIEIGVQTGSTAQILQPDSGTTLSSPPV

[34] = target: Epidermal growth factor receptor (Homo sapiens, UniProt P00533, L858R/T790M); test: Inhibition of EGFR T790M/L858R mutant (unknown origin)
Epidermal growth factor receptor (Homo sapiens, UniProt P00533, L858R/T790M), sequence (P00533 25-1210 T790M/L858R limits assumed): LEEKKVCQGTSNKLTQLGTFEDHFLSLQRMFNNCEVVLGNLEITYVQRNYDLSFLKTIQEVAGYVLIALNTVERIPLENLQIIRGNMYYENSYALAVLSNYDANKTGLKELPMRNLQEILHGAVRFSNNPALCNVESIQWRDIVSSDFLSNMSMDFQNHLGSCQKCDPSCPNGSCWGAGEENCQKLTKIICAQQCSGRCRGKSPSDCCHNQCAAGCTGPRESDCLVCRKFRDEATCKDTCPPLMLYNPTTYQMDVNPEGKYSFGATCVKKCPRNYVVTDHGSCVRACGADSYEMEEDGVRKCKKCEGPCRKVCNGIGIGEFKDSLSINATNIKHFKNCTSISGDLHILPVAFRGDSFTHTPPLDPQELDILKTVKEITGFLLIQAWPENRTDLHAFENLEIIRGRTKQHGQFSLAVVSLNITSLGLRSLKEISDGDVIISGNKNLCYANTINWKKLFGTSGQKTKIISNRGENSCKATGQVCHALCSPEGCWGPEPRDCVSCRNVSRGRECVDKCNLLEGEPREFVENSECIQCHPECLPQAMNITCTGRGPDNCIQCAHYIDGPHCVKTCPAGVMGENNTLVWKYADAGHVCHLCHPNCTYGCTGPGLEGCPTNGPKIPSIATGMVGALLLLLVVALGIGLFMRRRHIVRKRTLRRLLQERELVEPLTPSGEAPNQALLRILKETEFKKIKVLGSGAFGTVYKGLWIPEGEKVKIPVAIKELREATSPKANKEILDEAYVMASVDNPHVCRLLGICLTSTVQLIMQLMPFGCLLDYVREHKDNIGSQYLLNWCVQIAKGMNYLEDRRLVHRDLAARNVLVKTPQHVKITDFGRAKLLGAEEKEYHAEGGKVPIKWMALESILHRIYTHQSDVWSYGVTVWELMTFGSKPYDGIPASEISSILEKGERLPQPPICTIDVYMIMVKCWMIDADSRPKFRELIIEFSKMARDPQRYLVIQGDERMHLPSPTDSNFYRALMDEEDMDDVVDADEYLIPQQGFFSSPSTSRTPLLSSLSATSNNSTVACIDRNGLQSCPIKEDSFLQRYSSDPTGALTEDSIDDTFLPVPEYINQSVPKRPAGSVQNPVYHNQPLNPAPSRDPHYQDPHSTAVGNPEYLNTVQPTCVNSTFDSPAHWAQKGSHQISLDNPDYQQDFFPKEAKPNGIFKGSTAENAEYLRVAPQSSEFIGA

[35] = Toxicity in nude mouse allografted with mouse BaF3 cells assessed as damage in heart at 50 mg/kg, po for 7 days by H and E staining based analysis; format: organism-based; details: in vivo, 168 h, time 7 day
[36] = tested on: BaF3; test: Inhibition of colony formation in mouse BaF3 cells harboring EGFR L858R/T790M/C797S mutant at 5 to 10 nM by crystal violet staining based analysis; format: functional, cell-based; details: dose 5-10 nM
[37] = Toxicity in nude mouse allografted with mouse BaF3 cells assessed as lesion in heart at 50 mg/kg, po for 7 days by H and E staining based analysis; format: organism-based; details: in vivo, 168 h, time 7 day
[38] = tested on: NCI-H1975; test: Inhibition of colony formation in human NCI-H1975 cells at 5 to 10 nM by crystal violet staining based analysis; format: functional, cell-based; details: dose 5-10 nM
[39] = Cytotoxicity against human HK-2 cells; format: toxicity, cell-based
[40] = tested on: BaF3; test: Inhibition of EGFR L858R/T790M/C797S mutant in mouse BaF3 cells assessed as reduction in AKT phosphorylation incubated for 24 hrs by Western blot analysis; format: cell-based; details: dose <= 100.0 nM
[41] = tested on: BaF3; test: Induction of cell death in inner region of cell spheres of mouse BaF3 cells harboring EGFR L858R/T790M/C797S mutant at 10 nM by Calcein AM/PI staining based analysis; format: functional

CN1CCCN(c2ccc(Nc3ncc(Br)c(Nc4ccccc4NS(=O)(=O)C4CC4)n3)cc2)CC1
Activity [1]: Non-Toxic
viability at 0.01 µM [2]: 77.3%
inhibition [3]: Active
inhibition [4]: Dose-Dependent Effect
inhibition [5]: Active
Activity [6]: Non-Toxic
Activity [7]: 0.48%
Activity [8]: Non-Toxic
IC50 [9]: 70.7 nM
inhibition [10]: Dose-Dependent Effect
inhibition [11]: Active
IC50 [12]: 0.42 nM
Activity [13]: Non-Toxic
inhibition at 0.01 µM [14]: 92%
inhibition [15]: Active
IC50 [16]: 2520 nM
Activity [17]: Active
Activity [18]: 13.31%
inhibition [19]: Dose-Dependent Effect
IC50 [20]: 3 nM
IC50 [21]: 4350 nM
IC50 [22]: 5410 nM
Activity [23]: 2.98%
IC50 [24]: 0.61 nM
Activity [25]: Active
Activity [26]: Active
Activity [27]: Active
IC50 [28]: 799 nM
inhibition [29]: Active
inhibition [30]: Active
Activity [31]: 9.36%
Activity [32]: Non-Toxic
Activity [33]: Active
IC50 [34]: 4.76 nM
Activity [35]: Non-Toxic
inhibition [36]: Active
Activity [37]: Non-Toxic
inhibition [38]: Active
IC50 [39]: 2780 nM
inhibition [40]: Dose-Dependent Effect
Activity [41]: Active
